Patent publication US20230158071A1, “TUMOR COMBINED IMMUNOTHERAPY” (CRAGE medical Co., Limited, priority 2018, published 2023)

Assays:
Assay type in all cases: cell-based, mouse
[1] = system: cytokines Granzyme B, IFN-γ, and IL-2; test: ELISA of cytokines in supernatant of co-cultured E0771-EGFRvIII cells and CAR-T cells; settings: E0771-EGFRvIII co-culture
Procedure: (§1) Olaparib pretreatment group: different concentrations of olaparib (1 μM, 5 μM) are added to the medium for culturing E0771-EGFRVIII or 4T1-EGFRvIII tumor cells respectively, culturing at 37° C. for 24 h, and then the cells are treated with trypsin and resuspended in fresh medium. The untreated mouse T cells and 806-mCD28z-CAR T cells in Example 1 are respectively taken to incubate with E0771-EGFRvIII or 4T1-EGFRVIII cells pretreated with different concentrations of olaparib at a ratio of 1:3, 1:1, and 3:1; 16 hours later, the secretion of LDH in the supernatant is detected by Cytox 96 Non-Radioactive Cytotoxicity Assay, then calculating the killing toxicity of 806-mCD28z CAR T cells to tumor cells pretreated with different concentrations of olaparib. For specific detection steps and calculation methods, see the instructions of Promaga. Cytox 96 Non-Radioactive Cytotoxicity Assay (Promaga, REF: G1782); at the same time, the secretions of cytokines Granzyme B, IFN-γ, and IL-2 in the supernatant are detected by ELISA kit (Lianke Biotech Co. Ltd. CAT: 18^.22), for specific experimental procedures, referring to instructions of MouseGranzyme B, IFN-γ, IL-2 ELISA kit from Lianke Biotech Co, Ltd.
Olaparib combined treatment group: different concentrations of olaparib (1 μM, 5 μM) are added to the medium for culturing E0771-EGFRVIII or 4T1-EGFRvIII tumor cells respectively, culturing at 37° C. for 24 h, and then the cells are treated with trypsin and resuspended in fresh medium. The untreated mouse T cells and 806-mCD28z-CAR T cells in Example 1 are respectively taken to incubate with E0771-EGFRvIII or 4T1-EGFRvIII cells treated with different concentrations of olaparib at a ratio of 1:3, 1:1, and 3:1; after corresponding concentrations of olaparib (1 μM, 5 μM) are added to treat the cells continuously for 16 hours, the secretion of LDH in the supernatant is detected by Cytox 96 Non-Radioactive Cytotoxicity Assay, then calculating the killing toxicity of 806-mCD28z CAR T cells to tumor cells pretreated with different concentrations of olaparib. […]

[2] = system: cytokines Granzyme B, IFN-γ, and IL-2; test: ELISA of cytokines in supernatant of co-cultured 4T1-EGFRvIII cells and CAR-T cells; settings: 4T1-EGFRvIII co-culture with CAR-T cells, olaparib groups
Procedure: as §1, with “Co, Ltd. […]” for “Co, Ltd.”

[3] = system: exhaustion-related proteins PD1, LAG3 and TIM3 on the surface of CAR-T cells; test: Flow cytometry of exhaustion-related proteins on CAR-T cells in co-culture
Procedure: The experimental groups are as follows: 806-mCD28z-CAR-T group (or denoted as 806-28Z), olaparib pretreatment group, and olaparib combined treatment group;
The olaparib pretreatment group comprises: 806-mCD28z-CAR-T+1 μM olaparib pretreatment group (or denoted as 806-28Z+Olaparib 1 μM pretreatment), 806-mCD28z-CAR-T+5 μM olaparib pretreatment group (or denoted as 806-28Z+Olaparib 5 μM pretreatment);
Olaparib combined treatment group comprises: 806-mCD28z-CAR-T+1 μM olaparib combined treatment group (or denoted as 806-28Z+Olaparib 1 μM), 806-mCD28z-CAR-T+5 μM olaparib combined treatment group (or denoted as 806-28Z+Olaparib 5 μM).
(§2) Olaparib pretreatment group: different concentrations of olaparib (1 μM, 5 μM) are respectively added to a medium for culturing E0771-EGFRvIII or 4T1-EGFRvIII tumor cells, after culturing at 37° C. for 24 hours, the cells are treated with trypsin and resuspended in fresh medium. 806-mCD28z-CAR T cells in Example 1 are taken to co-incubate with E0771-EGFRVIII or 4T1-EGFRvIII cells pretreated with different concentrations of olaparib at a ratio of 1:1; 16 hours later, the proliferation of CAR-T cells and the expression levels of the T cell exhaustion-related proteins PD1, LAG3 and TIM3 on the surface of CAR-T cells are detected by flow cytometry.
as §2, with “combined treatment” for “pretreatment”, “E0771-EGFRvIII” for “E0771-EGFRVIII”, “1:1; after corresponding concentrations of olaparib (1 μM, 5 μM) are respectively added to the medium for” for “1:1;”, “hours,” for “hours later,”, “LAG-3” for “LAG3”

[4] = olaparib pretreatment and combined treatment groups vs CAR-T single treatment group
[5] = olaparib combined treatment group

## O=C(c1cc(Cc2n[nH]c(=O)c3ccccc23)ccc1F)N1CCN(C(=O)C2CC2)CC1 [olaparib]
[1]; [4]
  level of Granzyme B in the supernatant: do not increase significantly
  level of IL-2 in the supernatant: do not increase significantly
[1]; olaparib pretreatment group and olaparib combined treatment group vs CAR-T single treatment group
  level of IFN-γ in the supernatant: significantly increased
[2]
  level of cytokine in the supernatant: not increased
[3]; [5]
  expression level of LAG3 on the surface of CAR-T cells: do not change significantly
  expression level of PD1 on the surface of CAR-T cells: do not change significantly
  expression level of TIM3 on the surface of CAR-T cells: do not change significantly
[3]; olaparib pretreatment group
  expression level of LAG3 on the surface of CAR-T cells: do not change significantly
  expression level of PD1 on the surface of CAR-T cells: do not change significantly
  expression level of TIM3 on the surface of CAR-T cells: do not change significantly
